These results are taken from ChEMBL document CHEMBL1268839, “Small molecules targeting the interaction between HIV-1 integrase and LEDGF/p75 cofactor” (Bioorg Med Chem, 2010).

The nature of the first experiment: Selectivity ratio of compound IC50 to CHIBA-3003 IC50 for HIV-1 His6-tagged integrase-recombinant flag-tagged LEDGF/p75 interaction.
Take `Cc1cc(C)cc(Cn2cc(C(=O)/C=C(\O)C(=O)O)c3c(O)cccc32)c1`: the Ratio IC50 is 10.

The next experiment is described as follows: Inhibition of HIV-1 His6-tagged integrase-recombinant flag-tagged LEDGF/p75 interaction 1 hr by alphascreen assay.
As for `O=C(O)/C(O)=C/C(=O)c1c[nH]c2cccc(O)c12`, the IC50 worked out at 35 µM.
On to `Cc1cccc(C)c1Cn1cc(C(=O)C2=C(O)C(=O)OC2)c2c(O)cccc21`, for which the IC50 amounted to 7.5 µM.
In the case of `Cc1cccc(Cn2cc(C(=O)/C=C(\O)C(=O)O)c3c(O)cccc32)c1C`, the IC50 came to 28.5 µM.
`Cc1ccc(Cn2cc(C(=O)/C=C(\O)C(=O)O)c3c(O)cccc32)cc1`: the IC50 came out at 68 µM.
Same read-out and setting: for `Cc1cc(C)cc(Cn2cc(C(=O)C3=C(O)C(=O)OC3)c3c(O)cccc32)c1` the value was 123 µM.
On the same count and under the same terms, for `Cc1ccc(Cn2cc(C(=O)C3=C(O)C(=O)OC3)c3c(O)cccc32)c(C)c1` the value was 11.7 µM; for `O=C(O)/C(O)=C/C(=O)c1cn(Cc2ccc(F)cc2)c2cccc(O)c12`, 76 µM.
On the same count and under the same terms, for `Cc1cccc(Cn2cc(C(=O)C3=C(O)C(=O)OC3)c3c(O)cccc32)c1` the value was 53.3 µM; for `CCOC(=O)/C(O)=C/C(=O)c1cn(Cc2ccc(C)cc2)c2cccc(O)c12`, 171 µM; for `Cc1ccc(Cn2cc(C(=O)C3=C(O)C(=O)OC3)c3c(O)cccc32)cc1`, 8.7 µM.
For the compound `Cc1cc(C)cc(Cn2cc(C(=O)/C=C(\O)C(=O)O)c3c(O)cccc32)c1`, the IC50 was found to be 3.5 µM.

A further experiment is described as follows: Inhibition of HIV1 His6-tagged integrase-recombinant flag-tagged LEDGF/p75 interaction at 100 uM after 1 hr by alphascreen assay. (Alpha assays give light when donor and acceptor beads are brought close together.)
Turning to `O=C(O)/C(O)=C/C(=O)c1c[nH]c2cccc(O)c12`, the inhibition was 71%.
In the case of `CCOC(=O)/C(O)=C/C(=O)c1cn(Cc2ccc(C)cc2C)c2cccc(O)c12`, the inhibition came out at 58%.
Consider `Cc1cccc(C)c1Cn1cc(C(=O)C2=C(O)C(=O)OC2)c2c(O)cccc21`, for which the inhibition is 70%.
Still for that read-out and setting: for `CCOC(=O)/C(O)=C/C(=O)c1cn(Cc2cccc(C)c2C)c2cccc(O)c12` the value was 57%.
With `Cc1ccc(Cn2cc(C(=O)/C=C(\O)C(=O)O)c3c(O)cccc32)c(C)c1`, the inhibition came out at 55%.
The same measure, in the same setting: for `Cc1cccc(Cn2cc(C(=O)/C=C(\O)C(=O)O)c3c(O)cccc32)c1C` the value was 93%; for `Cc1ccc(C)c(Cn2cc(C(=O)/C=C(\O)C(=O)O)c3c(O)cccc32)c1`, 40%; for `Cc1ccc(Cn2cc(C(=O)/C=C(\O)C(=O)O)c3c(O)cccc32)cc1`, 86%.
Turning to `Cc1cccc(C)c1Cn1cc(C(=O)/C=C(\O)C(=O)O)c2c(O)cccc21`, the inhibition was 72%.
As for `CCOC(=O)/C(O)=C/C(=O)c1cn(Cc2cccc(C)c2)c2cccc(O)c12`, the inhibition was determined as 45%.
Turning to `Cc1cc(C)cc(Cn2cc(C(=O)C3=C(O)C(=O)OC3)c3c(O)cccc32)c1`, the inhibition was 69%.
Still for that read-out and setting: for `Cc1ccc(Cn2cc(C(=O)C3=C(O)C(=O)OC3)c3c(O)cccc32)c(C)c1` the value was 96%; for `O=C(O)/C(O)=C/C(=O)c1cn(Cc2ccc(F)cc2)c2cccc(O)c12`, 56%.
Consider `Cc1ccc(C)c(Cn2cc(C(=O)C3=C(O)C(=O)OC3)c3c(O)cccc32)c1`, for which the inhibition was determined as 38%.
Take `Cc1cccc(Cn2cc(C(=O)C3=C(O)C(=O)OC3)c3c(O)cccc32)c1C`: the inhibition amounted to 70%.
With `Cc1cccc(Cn2cc(C(=O)C3=C(O)C(=O)OC3)c3c(O)cccc32)c1`, the inhibition is 61%.
For `CCOC(=O)/C(O)=C/C(=O)c1cn(Cc2ccc(C)cc2)c2cccc(O)c12`, the inhibition was 60%.
Regarding `Cc1ccc(Cn2cc(C(=O)C3=C(O)C(=O)OC3)c3c(O)cccc32)cc1`, the inhibition was determined as 81%.
On to `CCOC(=O)/C(O)=C/C(=O)c1cn(Cc2ccccc2C)c2cccc(O)c12`, for which the inhibition was found to be 24%.
Take `CCOC(=O)/C(O)=C/C(=O)c1cn(Cc2cc(C)ccc2C)c2cccc(O)c12`: the inhibition was 33%.
In the case of `Cc1ccccc1Cn1cc(C(=O)C2=C(O)C(=O)OC2)c2c(O)cccc21`, the inhibition amounted to 34%.
Take `CCOC(=O)/C(O)=C/C(=O)c1cn(Cc2c(C)cccc2C)c2cccc(O)c12`: the inhibition is 47%.
Turning to `Cc1cc(C)cc(Cn2cc(C(=O)/C=C(\O)C(=O)O)c3c(O)cccc32)c1`, the inhibition was found to be 94%.
Regarding `Cc1cccc(Cn2cc(C(=O)/C=C(\O)C(=O)O)c3c(O)cccc32)c1`, the inhibition was found to be 16%.
As for `CCOC(=O)/C(O)=C/C(=O)c1cn(Cc2cc(C)cc(C)c2)c2cccc(O)c12`, the inhibition stood at 52%.
Still for that read-out and setting: under `Cc1ccccc1Cn1cc(C(=O)/C=C(\O)C(=O)O)c2c(O)cccc21` stands 20%.

Broadly, the IC50 is the concentration that gives 50% inhibition. As usually defined, the inhibition is the change of the read-out against control, counted positive when it falls.
